Data set [1] can be described thus: Synovial fluid concentration of fluocinolone acetonide after FA screw implant in the stifle joint of sheep. The class given is in vivo, Ovis aries (Sheep). The settings on record: at three and eight weeks, FIG. 1. The source says: (§1) The objective of this study was to determine both the local and systemic pharmacokinetic profile of an intra-articular fluocinolone acetonide (FA screw) implant in the stifle joint of sheep. The animals underwent surgical implantation of the FA Screw test device in the stifle joint on Day 1. Following a recovery period, blood and synovial fluid were collected periodically for pharmacokinetic determination. Following completion of a 24 month observation period, the animals were euthanized and subjected to necropsy.
(§2) Devices were administered once via surgical implantation on Day 1.
(§3) The implant was a polymer-coated, sustained-release delivery system for Fluocinolone Acetonide (FA). The implant contained 55 mg of FA and was designed to deliver the drug for approximately 3 years. The tablet core contained approximately 55 mg of FA granulated with 10% PVA. The tablet core was positioned and adhered via an adhesive, such as a silicone adhesive, in the interchangeable head of the bone screw. The overall device geometry was that of a cancellous bone screw (i.e. the base) in which the head of the screw has been hollowed out to accept a removable cup (i.e. the payload) containing the drug tablet. In this embodiment, the screw was approximately 11/16″ in length and is no more than ¼″ at its widest point (i.e. the screw head), The payload was sized to fit into the screw and to accommodate the tablet. […]

A short description of data set [2]: Plasma concentration of fluocinolone acetonide after FA screw implant in the stifle joint of sheep. In kind it is in vivo, Ovis aries (Sheep). The settings on record: intra-articular FA screw implants in the stifle joint, FIG. 1.
Excerpt: as §1, §2, §3

Data set [3] is described as follows: Fluocinolone acetonide concentration in dog plasma after bilateral intraarticular implants (twelve month toxicity study in beagle dogs). In kind it is in vivo, Canis familiaris. The note with it: other: bilateral intraarticular implants (knee joints). The method, then:
Devices were administered once via bilateral intraarticular implants. The day of surgical implantation was Day 1. The devices were made as follows. Fluocinolone acetonide, USP, was compressed into 1.5 mm diameter tablets using standard pharmaceutical methods. The tablets were placed into preformed cups made from silicone elastomer. Cup size was dependent on dosage form. These cups were attached to […] (PVA) suture tabs. For the 2 mg implants, the surface of the tablet not coated with silicone was attached to a suture tab with PVA solution. For the 6 mg implant, a side of the silicone cup was attached perpendicular to the suture tab. Finally, the assemblies were dip coated with PVA. The implants were then cured at 135° C. for 5 hours and placed within the primary package. The product in the primary package was placed in a self-adhesive pouch and sterilized using gamma irradiation. Surgery was performed on both knee joints of all animals. A lateral skin incision was made to expose the fascia lata overlying the vastus lateralis cranially and the biceps fernoris caudally. The joint was exposed through an incision in the lateral intermuscular septum to expose the femur by anterior retraction of the vastus lateralis and posterior retraction of the biceps femoris. Care was taken not to disrupt the tendon of origin of the long digital extensor as it originates from the lateral femoral condyle. The joint capsule was opened, the patella luxated medially, and the joint was held in full flexion. 2 mg devices were placed in the right leg and 18 mg implants were placed in the left leg. The implants were placed within the anterior intercondyloid fossa, immediately lateral to the origin of the posterior cruciate ligament. The bone may be slightly deepened at this location with a curette to accept the implant. The implant was sutured in place to the posterior cruciate ligament. The joint capsule was closed with 3/0 PDS in a simple interrupted fashion. The retinaculum and intermuscular septum were closed with 2/0 Vicryl in a continuous pattern. The fascia lata were closed with 2/0 PDS, and the subcutaneous tissues with 3/0 PDS, both in a simple continuous pattern. The skin was closed with 3/0 Vicryl in a subcuticular pattern. Blood was collected from a peripheral vessel. Blood volumes represent whole blood and are approximate amounts. The blood samples were processed for plasma, the plasma was extracted, and the plasma was placed immediately in a ≦−70°C. freezer until transferred for analysis.

Where two headings read alike, the source gives them in different places.

Turning to `CC1(C)O[C@@H]2C[C@H]3[C@@H]4C[C@H](F)C5=CC(=O)C=C[C@]5(C)[C@@]4(F)[C@@H](O)C[C@]3(C)[C@]2(C(=O)CO)O1` [Fluocinolone Acetonide], the “increase in FA concentrations in the synovial fluid” value in data set [1] is “three-fold increase”. The same molecule yielded a Plasma levels in data set [2] of 0 to 0.00035 µg/mL. Moreover, the concentration at 3 day in data set [3] (Dog 1001, Day 3, read-out: Assayed Concentrations of Fluocinolone Acetonide in Dog Plasma Samples) came to 1.89 ng/mL. In addition, the concentration at 21 day came out at 0.57 ng/mL in data set [3] (Dog 1001, Day 21, read-out: Assayed Concentrations of Fluocinolone Acetonide in Dog Plasma Samples) and 4.92 ng/mL in data set [3] (Dog 3001, Day 21, read-out: Assayed Concentrations of Fluocinolone Acetonide in Dog Plasma Samples). The concentration at 7 day in data set [3] (Dog 3001, Day 7, read-out: Assayed Concentrations of Fluocinolone Acetonide in Dog Plasma Samples) is 16.9 ng/mL.

Source of the values: patent publication US6936270B2, “Device and method for treating conditions of a joint” (Control Delivery Systems, Inc., priority 2000, dated 2005).
